In PubChem BioAssay AID246 (DTP/NCI, 2004):
Values joined by “and” are separate entries in the source; they are usually repeats but may differ in a detail not shown here. Equal values may be shown once. Inconclusive results and toxic doses are left out.

System: BDF1 mice, P1081 chloroleukemia ip, survival T/C
Test: NCI In Vivo Anticancer Drug Screen. Data for tumor model P1081 Chloroleukemia (intraperitoneal) in B6D2F1 (BDF1) mice
Settings: endpoint: mean survival time, higher = longer survival
Method: The antitumor activity of compounds was measured in mice bearing transplantable tumors. Survival or tumor size were measured and the results are expressed as the measurement made in the treated group (T) divided by the measurement made in the vehicle treated control group (C). The tumor model used in this assay is P1081 Chloroleukemia (intraperitoneal) in B6D2F1 (BDF1) mice

[1] = dose: 3.1 mg/kg/injection, schedule: Q01DX Z (ip), vehicle: carboxymethylcellulose (CMC)
[2] = dose: 6.25 mg/kg/injection, schedule: Q01DX Z (ip), vehicle: carboxymethylcellulose (CMC)
[3] = dose: 12.5 mg/kg/injection, schedule: Q01DX Z (ip), vehicle: carboxymethylcellulose (CMC)
[4] = dose: 100.0 mg/kg/injection, schedule: Q01DX Z (ip), vehicle: carboxymethylcellulose (CMC)
[5] = dose: 50.0 mg/kg/injection, schedule: Q01DX010 (ip), vehicle: saline
[6] = dose: 100.0 mg/kg/injection, schedule: Q01DX010 (ip), vehicle: saline
[7] = dose: 200.0 mg/kg/injection, schedule: Q01DX010 (ip), vehicle: saline
[8] = dose: 400.0 mg/kg/injection, schedule: Q01DX010 (ip), vehicle: saline
[9] = dose: 37.5 mg/kg/injection, schedule: Q01DX010 (ip), vehicle: saline
[10] = dose: 150.0 mg/kg/injection, schedule: Q01DX010 (ip), vehicle: saline
[11] = dose: 1.6 mg/kg/injection, schedule: Q01DX Z (ip), vehicle: carboxymethylcellulose (CMC)
[12] = dose: 25.0 mg/kg/injection, schedule: Q01DX Z (ip), vehicle: carboxymethylcellulose (CMC)
[13] = dose: 50.0 mg/kg/injection, schedule: Q01DX Z (ip), vehicle: carboxymethylcellulose (CMC)

O=C(Nc1ccc(C2=NCCCN2)cc1)c1ccc(NC(=O)c2ccc(C3=NCCCN3)cc2)cc1
T/C (dose: 1.95 mg/kg/injection, schedule: Q01DX Z (ip), vehicle: water): 123 % of control
T/C (dose: 3.9 mg/kg/injection, schedule: Q01DX Z (ip), vehicle: carboxymethylcellulose (CMC)): 157 % of control
T/C (dose: 3.9 mg/kg/injection, schedule: Q01DX Z (ip), vehicle: water): 193 % of control
T/C (dose: 7.8 mg/kg/injection, schedule: Q01DX Z (ip), vehicle: water): 202 % of control
T/C (dose: 15.6 mg/kg/injection, schedule: Q01DX Z (ip), vehicle: carboxymethylcellulose (CMC)): 92 % of control
T/C (dose: 15.6 mg/kg/injection, schedule: Q01DX Z (ip), vehicle: water): 86 % of control

C[N+](C)(C)c1ncnc2nc[nH]c12
T/C [1]: 94 % of control
T/C [2]: 97 % of control
T/C [3]: 100 % of control
T/C [4]: 195 % of control

Cc1cc2nc3c(=O)[nH]c(=O)nc-3n(CC(O)C(O)C(O)C(O)CO)c2cc1C (stereo not given)
T/C [5]: 88 % of control and 100 % of control
T/C [6]: 88 % of control and 90 % of control
T/C [7]: 90 % of control and 100 % of control
T/C [8]: 100 % of control

CC[C@]1(O)C[C@H]2CN(CCc3c([nH]c4ccccc34)[C@@](C(=O)OC)(c3cc4c(cc3OC)N(C=O)[C@H]3[C@@](O)(C(=O)OC)[C@H](OC(C)=O)[C@]5(CC)C=CCN6CC[C@]43[C@@H]65)C2)C1
T/C (dose: 0.06 mg/kg/injection, schedule: Q01DX Z (ip), vehicle: water): 112 % of control
T/C (dose: 1.0 mg/kg/injection, schedule: Q01DX Z (ip), vehicle: water): 118 % of control

CCCCCCCCCCCCNCCCCCCCCCCCC
T/C (dose: 0.24 mg/kg/injection, schedule: Q01DX Z (ip), vehicle: saline): 91 % of control
T/C (dose: 0.48 mg/kg/injection, schedule: Q01DX Z (ip), vehicle: carboxymethylcellulose (CMC)): 112 % of control
T/C (dose: 0.48 mg/kg/injection, schedule: Q01DX Z (ip), vehicle: saline): 90 % of control
T/C (dose: 1.9 mg/kg/injection, schedule: Q01DX Z (ip), vehicle: carboxymethylcellulose (CMC)): 101 % of control
T/C (dose: 1.9 mg/kg/injection, schedule: Q01DX Z (ip), vehicle: saline): 94 % of control
T/C (dose: 3.8 mg/kg/injection, schedule: Q01DX Z (ip), vehicle: carboxymethylcellulose (CMC)): 103 % of control

CO[C@@H]1[C@@H](OC2OC(C)C(OC3CC(C)(O)C(OC(=O)CC(C)C)C(C)O3)C(N(C)C)C2O)[C@@H](CC=O)C[C@@H](C)C(=O)/C=C/C2O[C@H]2C[C@@H](C)OC(=O)C[C@H]1OC(C)=O (stereo not given in full)
T/C [9]: 111 % of control and 120 % of control
T/C [10]: 111 % of control and 115 % of control
T/C (dose: 300.0 mg/kg/injection, schedule: Q01DX010 (ip), vehicle: saline): 122 % of control

Nc1ncnc2c1ccn2C1OC(CO)C(O)C1O (stereo not given)
T/C (dose: 0.04 mg/kg/injection, schedule: Q01DX Z (ip), vehicle: carboxymethylcellulose (CMC)): 98 % of control
T/C (dose: 0.08 mg/kg/injection, schedule: Q01DX Z (ip), vehicle: carboxymethylcellulose (CMC)): 94 % of control
T/C (dose: 0.16 mg/kg/injection, schedule: Q01DX Z (ip), vehicle: carboxymethylcellulose (CMC)): 101 % of control
T/C (dose: 0.31 mg/kg/injection, schedule: Q01DX Z (ip), vehicle: carboxymethylcellulose (CMC)): 110 % of control and 112 % of control
T/C (dose: 0.63 mg/kg/injection, schedule: Q01DX Z (ip), vehicle: carboxymethylcellulose (CMC)): 108 % of control
T/C (dose: 1.25 mg/kg/injection, schedule: Q01DX Z (ip), vehicle: carboxymethylcellulose (CMC)): 88 % of control

COc1cc2c(c(OC)c1OC)-c1ccc(OC)c(=O)cc1[C@@H](NC(C)=O)CC2
T/C (dose: 0.08 mg/kg/injection, schedule: Q01DX Z (ip), vehicle: saline): 112 % of control
T/C (dose: 0.16 mg/kg/injection, schedule: Q01DX Z (ip), vehicle: saline): 114 % of control
T/C (dose: 0.6 mg/kg/injection, schedule: Q01DX Z (ip), vehicle: saline): 151 % of control
T/C (dose: 0.63 mg/kg/injection, schedule: Q01DX Z (ip), vehicle: saline): 177 % of control

CN(C)c1nc(N(C)C)nc(N(C)C)n1
T/C (dose: 16.0 mg/kg/injection, schedule: Q01DX Z (ip), vehicle: carboxymethylcellulose (CMC)): 95 % of control
T/C (dose: 18.8 mg/kg/injection, schedule: Q01DX010 (ip), vehicle: saline): 116 % of control and 100 % of control
T/C (dose: 31.0 mg/kg/injection, schedule: Q01DX Z (ip), vehicle: carboxymethylcellulose (CMC)): 92 % of control
T/C [9]: 116 % of control and 100 % of control
T/C (dose: 62.5 mg/kg/injection, schedule: Q01DX Z (ip), vehicle: carboxymethylcellulose (CMC)): 88 % of control
T/C (dose: 63.0 mg/kg/injection, schedule: Q01DX Z (ip), vehicle: carboxymethylcellulose (CMC)): 123 % of control
T/C (dose: 75.0 mg/kg/injection, schedule: Q01DX010 (ip), vehicle: saline): 116 % of control and 105 % of control
T/C [10]: 111 % of control and 100 % of control

Cn1c(N)nc2nc[nH]c2c1=S
T/C [11]: 92 % of control
T/C [1]: 95 % of control
T/C [2]: 95 % of control and 98 % of control
T/C (dose: 10.0 mg/kg/injection, schedule: Q01DX010 (ip), vehicle: saline): 120 % of control and 100 % of control
T/C [3]: 96 % of control and 102 % of control
T/C (dose: 20.0 mg/kg/injection, schedule: Q01DX010 (ip), vehicle: saline): 105 % of control
T/C [12]: 96 % of control and 100 % of control and 105 % of control
T/C [13]: 98 % of control and 104 % of control
T/C [4]: 98 % of control and 102 % of control

CS(=O)(=O)OCC(O)C(O)C(O)C(O)COS(C)(=O)=O (stereo not given)
T/C (dose: 25.0 mg/kg/injection, schedule: Q01DX010 (ip), vehicle: saline): 110 % of control
T/C [5]: 110 % of control and 100 % of control
T/C [6]: 110 % of control and 105 % of control
T/C [7]: 111 % of control and 120 % of control
T/C [8]: 111 % of control

Cn1cnc([N+](=O)[O-])c1Sc1ncnc2nc[nH]c12
T/C [12]: 165 % of control
T/C [13]: 150 % of control
T/C [4]: 104 % of control

CCCCn1cnc2c(=S)nc[nH]c21
T/C [3]: 105 % of control
T/C (dose: 16.0 mg/kg/injection, schedule: Q01DX010 (ip), vehicle: saline): 115 % of control
T/C [12]: 98 % of control
T/C [13]: 114 % of control
T/C [4]: 98 % of control
T/C (dose: 128.0 mg/kg/injection, schedule: Q01DX010 (ip), vehicle: saline): 95 % of control

CN(C)c1ccc(Nc2c3ccccc3nc3ccccc23)cc1
T/C [2]: 101 % of control
T/C [3]: 88 % of control
T/C [12]: 90 % of control
T/C (dose: 36.0 mg/kg/injection, schedule: Q01DX010 (ip), vehicle: saline): 104 % of control
T/C [13]: 95 % of control
T/C [4]: 103 % of control

S=c1nc[nH]c2nc[nH]c12
T/C (dose: 1.56 mg/kg/injection, schedule: Q01DX Z (ip), vehicle: other): 108 % of control
T/C (dose: 3.12 mg/kg/injection, schedule: Q01DX Z (ip), vehicle: other): 120 % of control
T/C (dose: 5.0 mg/kg/injection, schedule: Q01DX010 (ip), vehicle: alkali diluted with saline): 110 % of control and 97 % of control
T/C (dose: 10.0 mg/kg/injection, schedule: Q01DX010 (ip), vehicle: alkali diluted with saline): 105 % of control and 92 % of control
T/C (dose: 20.0 mg/kg/injection, schedule: Q01DX010 (ip), vehicle: alkali diluted with saline): 106 % of control (2×) and 112 % of control
T/C (dose: 40.0 mg/kg/injection, schedule: Q01DX010 (ip), vehicle: alkali diluted with saline): 118 % of control and 90 % of control and 103 % of control
T/C (dose: 80.0 mg/kg/injection, schedule: Q01DX010 (ip), vehicle: alkali diluted with saline): 108 % of control and 116 % of control
T/C (dose: 200.0 mg/kg/injection, schedule: Q01DX Z (ip), vehicle: other): 91 % of control and 100 % of control

O=C(O)CCCc1ccc(N(CCCl)CCCl)cc1
T/C (dose: 0.8 mg/kg/injection, schedule: Q01DX Z (ip), vehicle: carboxymethylcellulose (CMC)): 90 % of control
T/C [11]: 92 % of control
T/C [1]: 102 % of control
T/C (dose: 3.13 mg/kg/injection, schedule: Q01DX010 (ip), vehicle: saline): 105 % of control and 120 % of control
T/C (dose: 6.2 mg/kg/injection, schedule: Q01DX Z (ip), vehicle: carboxymethylcellulose (CMC)): 113 % of control
T/C (dose: 6.25 mg/kg/injection, schedule: Q01DX010 (ip), vehicle: saline): 105 % of control and 115 % of control
T/C [2]: 86 % of control
T/C [3]: 107 % of control
T/C [12]: 114 % of control
T/C [13]: 102 % of control
